Source: ChEMBL document CHEMBL1136191, “Cyclin-dependent kinase 4 inhibitors as a treatment for cancer. Part 1: identification and optimisation of substituted 4,6-bis anilino pyrimidines” (Bioorg Med Chem Lett, 2003)

Tests used:
[1] = biological target: Cyclin-dependent kinase 2 (Homo sapiens, UniProt P24941); experiment: In vitro inhibition of Cyclin-dependent kinase 2 was determined.
[2] = biological target: Cyclin-dependent kinase 4 (Homo sapiens, UniProt P11802); experiment: In vitro inhibition of Cyclin-dependent kinase 4 was determined.
Cyclin-dependent kinase 4, sequence (P11802 whole entry): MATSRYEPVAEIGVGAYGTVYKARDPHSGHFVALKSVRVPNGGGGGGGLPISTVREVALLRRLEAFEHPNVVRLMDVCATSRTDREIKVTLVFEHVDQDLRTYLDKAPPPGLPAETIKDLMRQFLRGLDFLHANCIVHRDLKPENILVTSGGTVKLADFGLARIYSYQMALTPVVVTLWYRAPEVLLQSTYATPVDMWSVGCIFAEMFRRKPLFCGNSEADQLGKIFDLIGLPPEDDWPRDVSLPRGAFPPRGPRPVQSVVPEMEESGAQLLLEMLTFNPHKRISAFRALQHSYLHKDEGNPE

| IC50 [1] | IC50 [2] | Structure (SMILES) |
| --- | --- | --- |
| 28 µM | 4 µM | CN(C)CC(O)COc1ccc(Nc2cc(Nc3ccccc3Br)ncn2)cc1 (configuration not stated) |
| 19 µM | 0.8 µM | C#CCN(c1cc(Nc2ccc(OCC(O)CN(C)C)cc2)ncn1)c1cc(Cl)ccc1Cl (configuration not stated) |
| 1 µM | 0.05 µM | CN(C)CC(O)COc1ccc(Nc2cc(N(CC#N)c3cc(Cl)ccc3Cl)ncn2)cc1 (configuration not stated) |
|  | 6 µM | CN(C)CC(O)COc1ccc(Nc2cc(Nc3cc(C(F)(F)F)ccc3F)ncn2)cc1 (configuration not stated) |
|  | 9 µM | CN(C)CC(O)COc1ccc(Nc2cc(Nc3c(F)cccc3F)ncn2)cc1 (configuration not stated) |
| 85 µM | 23 µM | COc1ccccc1Nc1cc(Nc2ccc(OCC(O)CN(C)C)cc2)ncn1 (configuration not stated) |
| > 100 µM | 5 µM | CN(C)CC(O)COc1ccc(Nc2cc(N(Cc3ccccc3)c3cc(Cl)ccc3Cl)ncn2)cc1 (configuration not stated) |
| 25 µM | 2 µM | CN(C)CC(O)COc1ccc(Nc2cc(Nc3ccccc3[N+](=O)[O-])ncn2)cc1 (configuration not stated) |
| 93 µM | 15 µM | CN(C)CC(O)COc1ccc(Nc2cc(Nc3ccc(F)cc3F)ncn2)cc1 (configuration not stated) |
| 5 µM | 0.5 µM | CN(C)CC(O)COc1ccc(Nc2cc(N(CCC#N)c3cc(Cl)ccc3Cl)ncn2)cc1 (configuration not stated) |
| > 100 µM | 33 µM | CN(C)CC(O)COc1ccc(Nc2cc(Nc3ccccc3)ncn2)cc1 (configuration not stated) |
| > 100 µM | 27 µM | CN(C)CC(O)COc1ccc(Nc2cc(Nc3ccccc3F)ncn2)cc1 (configuration not stated) |
| 22 µM | 1 µM | CN(C)CC(O)COc1ccc(Nc2cc(Nc3cc(Cl)ccc3Cl)ncn2)cc1 (configuration not stated) |
| 39 µM | 8 µM | Cc1ccccc1Nc1cc(Nc2ccc(OCC(O)CN(C)C)cc2)ncn1 (configuration not stated) |
| 3 µM | 0.1 µM | Cc1ccc(N(CC#N)c2cc(Nc3ccc(OCC(O)CN(C)C)cc3)ncn2)c(Br)c1 (configuration not stated) |
| 95 µM | 8 µM | CN(C)CC(O)COc1ccc(Nc2cc(Nc3ccccc3Cl)ncn2)cc1 (configuration not stated) |
| 24 µM | 18 µM | CC(C)c1ccccc1Nc1cc(Nc2ccc(OCC(O)CN(C)C)cc2)ncn1 (configuration not stated) |
